Literature values in paper PMC2699040 (European Journal of Immunology, 2007).

Columns and labels:
[1] = tested on: SC21 peripheral blood lymphocytes; details: adapted IFN-γ ELISPOT, directly ex vivo; ref [18]; cited from earlier work
[2] = tested on: CTL line specific for the influenza epitope KTGGAIYKR; details: alanine-substituted at all but a single non-MHC anchor position; ref [14]; cited from earlier work

Sequence	HLA-A68-restricted response / antigenicity [1]	Recognition by CTL line [2]
FHCQVCFTTKALGISYGRKK [Tat4 peptide]	An HLA-A68-restricted response	
ATAAAIAAR		recognise efficiently
